Reference: PubChem BioAssay (NCI)
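Step 1: Grow cells in 96-well plates. Step 2: Expose to compound for 48 hours at 5 concentrations. Step 3: Interpolate endpoints linearly; if unreached, use highest concentration. At the GI50, growth is halved. At the TGI there is no net growth.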

Key:
Assay in all cases: growth of human tumour cells (NCI), 48 h
COLO 205 colon = test system: COLO 205 colon
SW-620 colon = test system: SW-620 colon
NCI-H23 lung = test system: NCI-H23 lung
PC-3 prostate = test system: PC-3 prostate
HCC-2998 colon = test system: HCC-2998 colon
KM12 colon = test system: KM12 colon
HOP-62 NSCLC = test system: HOP-62 NSCLC
NCI/ADR-RES ovarian = test system: NCI/ADR-RES ovarian
M14 melanoma = test system: M14 melanoma
HS 578T breast = test system: HS 578T breast
HCT-116 colon = test system: HCT-116 colon
OVCAR-3 ovarian = test system: OVCAR-3 ovarian
NCI-H522 lung = test system: NCI-H522 lung
A498 renal = test system: A498 renal
U251 CNS = test system: U251 CNS
EKVX NSCLC = test system: EKVX NSCLC
SK-OV-3 ovarian = test system: SK-OV-3 ovarian
OVCAR-5 ovarian = test system: OVCAR-5 ovarian
CAKI-1 renal = test system: CAKI-1 renal
HT29 colon = test system: HT29 colon
MDA-MB-231 breast = test system: MDA-MB-231 breast
SK-MEL-5 melanoma = test system: SK-MEL-5 melanoma
K-562 leukemia = test system: K-562 leukemia
HCT-15 colon = test system: HCT-15 colon
MALME-3M melanoma = test system: MALME-3M melanoma
SK-MEL-2 melanoma = test system: SK-MEL-2 melanoma
IGROV1 ovarian = test system: IGROV1 ovarian
UACC-257 melanoma = test system: UACC-257 melanoma
SF-295 CNS = test system: SF-295 CNS
SNB-19 CNS = test system: SNB-19 CNS
UO-31 renal = test system: UO-31 renal
NCI-H226 lung = test system: NCI-H226 lung
NCI-H460 lung = test system: NCI-H460 lung
OVCAR-8 ovarian = test system: OVCAR-8 ovarian
MOLT-4 leukemia = test system: MOLT-4 leukemia
ACHN renal = test system: ACHN renal
T-47D breast = test system: T-47D breast
SF-539 CNS = test system: SF-539 CNS
BT-549 breast = test system: BT-549 breast
SF-268 CNS = test system: SF-268 CNS
MCF7 breast = test system: MCF7 breast
786-0 renal = test system: 786-0 renal
A549 NSCLC = test system: A549 NSCLC
MDA-MB-435 = test system: MDA-MB-435
RPMI-8226 leukemia = test system: RPMI-8226 leukemia
OVCAR-4 ovarian = test system: OVCAR-4 ovarian
LOX IMVI melanoma = test system: LOX IMVI melanoma
SN12C renal = test system: SN12C renal
SK-MEL-28 melanoma = test system: SK-MEL-28 melanoma
HOP-92 NSCLC = test system: HOP-92 NSCLC
TK-10 renal = test system: TK-10 renal
RXF 393 renal = test system: RXF 393 renal
DU-145 prostate = test system: DU-145 prostate
SNB-75 CNS = test system: SNB-75 CNS
UACC-62 melanoma = test system: UACC-62 melanoma

## N#Cc1ccccc1C#C/C=C\C#Cc1cccs1
COLO 205 colon
  GI50: 14.3 µM
  TGI: 32.2 µM
SW-620 colon
  GI50: 7.78 µM
  TGI: > 100 µM
NCI-H23 lung
  GI50: 33.2 µM
  TGI: > 100 µM
PC-3 prostate
  GI50: 28.6 µM
  TGI: > 100 µM
HCC-2998 colon
  GI50: 28.3 µM
  TGI: > 100 µM
KM12 colon
  GI50: 3.93 µM
  TGI: 16.8 µM
HOP-62 NSCLC
  GI50: 16.5 µM
  TGI: 61.4 µM
NCI/ADR-RES ovarian
  GI50: 25.4 µM
  TGI: > 100 µM
M14 melanoma
  GI50: 11.4 µM
  TGI: 56.5 µM
HS 578T breast
  GI50: 8.03 µM
  TGI: 53.7 µM
HCT-116 colon
  GI50: 11.7 µM
  TGI: 46 µM
OVCAR-3 ovarian
  GI50: 14.1 µM
  TGI: 34.2 µM
NCI-H522 lung
  GI50: 36.8 µM
  TGI: > 100 µM
A498 renal
  GI50: 18.5 µM
  TGI: 54.3 µM
U251 CNS
  GI50: 16.4 µM
  TGI: 67.1 µM
EKVX NSCLC
  GI50: 24.8 µM
  TGI: > 100 µM
SK-OV-3 ovarian
  GI50: 28.9 µM
  TGI: > 100 µM
OVCAR-5 ovarian
  GI50: 70.7 µM
  TGI: > 100 µM
CAKI-1 renal
  GI50: 16 µM
  TGI: 78 µM
HT29 colon
  GI50: 11.8 µM
  TGI: > 100 µM
MDA-MB-231 breast
  GI50: 26.1 µM
  TGI: > 100 µM
SK-MEL-5 melanoma
  GI50: 14.5 µM
  TGI: 39 µM
K-562 leukemia
  GI50: 6.46 µM
  TGI: > 100 µM
HCT-15 colon
  GI50: 14.5 µM
  TGI: 83.1 µM
MALME-3M melanoma
  GI50: 19.5 µM
  TGI: 48.1 µM
SK-MEL-2 melanoma
  GI50: 62.8 µM
  TGI: > 100 µM
IGROV1 ovarian
  GI50: 42.7 µM
  TGI: > 100 µM
UACC-257 melanoma
  GI50: 32.5 µM
  TGI: > 100 µM
SF-295 CNS
  GI50: 13.8 µM
  TGI: 31.9 µM
SNB-19 CNS
  GI50: 45.8 µM
  TGI: > 100 µM
UO-31 renal
  GI50: 46.5 µM
  TGI: > 100 µM
NCI-H226 lung
  GI50: 47 µM
  TGI: > 100 µM
NCI-H460 lung
  GI50: 21.9 µM
  TGI: 75.8 µM
OVCAR-8 ovarian
  GI50: 30.3 µM
  TGI: > 100 µM
MOLT-4 leukemia
  GI50: 8.19 µM
  TGI: > 100 µM
ACHN renal
  GI50: 32 µM
  TGI: > 100 µM
T-47D breast
  GI50: 12.6 µM
  TGI: > 100 µM
SF-539 CNS
  GI50: 14.4 µM
  TGI: 34.1 µM
BT-549 breast
  GI50: 12.2 µM
  TGI: 94.8 µM
SF-268 CNS
  GI50: 19.1 µM
  TGI: 55.7 µM
MCF7 breast
  GI50: 6.07 µM
  TGI: 45.9 µM
786-0 renal
  GI50: 29.4 µM
  TGI: 84.1 µM
A549 NSCLC
  GI50: 25 µM
  TGI: > 100 µM
MDA-MB-435
  GI50: 2.11 µM
  TGI: 4.35 µM
RPMI-8226 leukemia
  GI50: 11.1 µM
  TGI: 51.2 µM
OVCAR-4 ovarian
  GI50: 34.9 µM
  TGI: > 100 µM
LOX IMVI melanoma
  GI50: 15.7 µM
  TGI: 92.4 µM
SN12C renal
  GI50: 33 µM
  TGI: > 100 µM
SK-MEL-28 melanoma
  GI50: 14.8 µM
  TGI: > 100 µM
HOP-92 NSCLC
  GI50: 25.8 µM
  TGI: > 100 µM
TK-10 renal
  GI50: 20.7 µM
  TGI: 62.5 µM
RXF 393 renal
  GI50: 14.9 µM
  TGI: 48.1 µM
DU-145 prostate
  GI50: 19.7 µM
  TGI: 77.3 µM
SNB-75 CNS
  GI50: 26.2 µM
  TGI: > 100 µM
UACC-62 melanoma
  GI50: 12.3 µM
  TGI: > 100 µM
